Results from publication PMC12703677, “Discovery of a Copper-Binding Carbohydrate-Binding Module Regulating the Activity of Lytic Polysaccharide Monooxygenases” (Journal of the American Chemical Society, 2025).

Tests used:
[1] = molecular target: T1, ScLPMO10C (ScLPMO10C^(MMH)) (Streptomyces coelicolor, UniProt Q9RJY2); experiment: fluorescence stopped-flow, single-turnover reduction of LPMO-Cu(II); type: biochemical; conditions: reductant; 50 mM sodium phosphate pH 6.0, 25 °C, anaerobic, no polysaccharide; second-order rate constant only, no Km
T1 construct: gene celS2; full-length mature AA10-linker-CBM2, native signal peptide replaced by SmLPMO10A signal peptide (cleaved; N-terminal His35), E. coli periplasm, untagged, Cu(II)-loaded

[2] = molecular target: T2, ScAA10 (CD; catalytic domain of ScLPMO10C) (Streptomyces coelicolor, UniProt Q9RJY2); experiment: as above; type: biochemical; conditions: reductant; 50 mM sodium phosphate pH 6.0, 25 °C, anaerobic, no polysaccharide; second-order rate constant only, no Km
T2 construct: gene celS2; N-terminal His35), SmLPMO10A signal peptide cleaved, E. coli periplasm, untagged, Cu(II)-loaded
T2 sequence (Q9RJY2 entry or part of it): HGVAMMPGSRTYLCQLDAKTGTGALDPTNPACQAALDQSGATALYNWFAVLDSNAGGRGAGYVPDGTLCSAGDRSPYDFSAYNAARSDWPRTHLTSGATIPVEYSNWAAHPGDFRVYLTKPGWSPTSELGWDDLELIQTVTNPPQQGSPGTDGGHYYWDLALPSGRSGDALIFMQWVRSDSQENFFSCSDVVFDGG

T1 sequence (Q9RJY2 entry or part of it): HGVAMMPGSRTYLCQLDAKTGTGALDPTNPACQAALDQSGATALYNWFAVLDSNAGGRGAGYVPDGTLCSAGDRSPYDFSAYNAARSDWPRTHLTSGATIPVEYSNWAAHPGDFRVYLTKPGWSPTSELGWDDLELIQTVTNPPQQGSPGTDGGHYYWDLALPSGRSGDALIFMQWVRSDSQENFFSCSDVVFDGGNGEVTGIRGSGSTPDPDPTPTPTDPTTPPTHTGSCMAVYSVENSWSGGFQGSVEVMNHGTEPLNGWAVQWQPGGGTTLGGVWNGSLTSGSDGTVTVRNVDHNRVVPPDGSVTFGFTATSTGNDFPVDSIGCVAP

`O=C1O[C@H]([C@@H](O)CO)C(O)=C1O` [ascorbic acid] was tested. Which “k AscA” value [1] did it give?
Its value is “the two variants exhibited identical reduction rates”.

And the “k AscA” value [2]?
Its value is “the two variants exhibited identical reduction rates”.
